# Measurements reported in patent US20240115557A1, “INHIBITORS OF RNA-GUIDED NUCLEASES AND USES THEREOF” (The Brigham and Women's Hospital, Inc., priority 2022, published 2024).
# Key:
# [1] = target: T1, SpCas9 (Streptococcus pyogenes serotype M1, UniProt Q99ZW2); assay: eGFP disruption assay, SpCas9, U2OS.eGFP.PEST cells; format: cell-based; settings: for Activity in eGFP-disruption assay: result in words, relative to BRD7586; for Normalized Z rep1 / Z score Rep1 / % GFP+, Rep 1: replicate 1; for SpCas9 eGFP disruption Rep1: replicate 1, raw readout; for Normalized Z rep2 / Z socre Rep2 / % GFP+, Rep 2: replicate 2; for SpCas9 eGFP disruption Rep2: replicate 2, raw readout
# T1 sequence (Q99ZW2 whole entry): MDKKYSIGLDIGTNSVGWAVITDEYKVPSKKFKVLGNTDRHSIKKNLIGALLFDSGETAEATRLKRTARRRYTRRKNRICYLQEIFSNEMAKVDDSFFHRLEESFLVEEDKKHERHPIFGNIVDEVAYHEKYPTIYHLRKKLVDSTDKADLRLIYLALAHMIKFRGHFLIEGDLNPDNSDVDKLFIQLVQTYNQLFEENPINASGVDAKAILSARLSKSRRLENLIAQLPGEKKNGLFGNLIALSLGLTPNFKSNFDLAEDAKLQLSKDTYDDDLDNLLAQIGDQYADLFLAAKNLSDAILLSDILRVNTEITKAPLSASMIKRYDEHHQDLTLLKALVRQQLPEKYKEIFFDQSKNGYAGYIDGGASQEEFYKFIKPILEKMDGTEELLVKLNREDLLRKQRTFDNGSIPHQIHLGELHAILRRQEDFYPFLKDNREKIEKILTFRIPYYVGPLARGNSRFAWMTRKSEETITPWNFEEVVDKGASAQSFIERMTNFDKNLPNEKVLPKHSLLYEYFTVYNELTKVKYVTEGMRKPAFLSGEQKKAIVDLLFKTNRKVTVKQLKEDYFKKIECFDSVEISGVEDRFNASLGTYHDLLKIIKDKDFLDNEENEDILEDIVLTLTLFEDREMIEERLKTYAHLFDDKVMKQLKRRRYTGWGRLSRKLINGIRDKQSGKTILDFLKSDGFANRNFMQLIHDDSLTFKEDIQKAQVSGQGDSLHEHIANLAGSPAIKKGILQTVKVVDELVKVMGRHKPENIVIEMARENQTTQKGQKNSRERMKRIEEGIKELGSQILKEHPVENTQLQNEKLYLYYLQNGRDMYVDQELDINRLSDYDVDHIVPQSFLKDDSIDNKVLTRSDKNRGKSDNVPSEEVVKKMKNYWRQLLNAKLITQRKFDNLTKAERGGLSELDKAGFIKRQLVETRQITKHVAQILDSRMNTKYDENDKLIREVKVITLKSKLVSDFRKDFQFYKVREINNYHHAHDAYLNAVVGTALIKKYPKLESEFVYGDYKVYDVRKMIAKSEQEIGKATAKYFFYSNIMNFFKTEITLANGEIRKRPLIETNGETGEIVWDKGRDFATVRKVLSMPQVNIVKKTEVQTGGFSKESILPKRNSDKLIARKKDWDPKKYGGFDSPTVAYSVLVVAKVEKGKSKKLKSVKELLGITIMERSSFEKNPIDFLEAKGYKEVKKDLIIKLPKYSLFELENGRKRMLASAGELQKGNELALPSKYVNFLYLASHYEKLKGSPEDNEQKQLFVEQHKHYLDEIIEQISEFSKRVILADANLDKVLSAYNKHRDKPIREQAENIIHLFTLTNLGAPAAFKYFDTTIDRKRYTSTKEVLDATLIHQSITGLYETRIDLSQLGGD
# In short: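 Rescue of eGFP signal lost through Cas9-induced NHEJ indels serves as the inhibition read-out, after 24 h compound exposure (20 μM for hits, variable for dose-response). Editing was delivered by nucleofection into U2OS.eGFP.PEST cells as SpCas9/gRNA plasmids (300/30 ng) or RNP (10/12 pmol). Toxic and autofluorescent compounds were excluded.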
# [2] = target: T1, SpCas9; assay: HiBiT knock-in assay, SpCas9, HEK293T cells; format: cell-based; settings: for Activity in HiBiT knock-in assay: result in words, relative to BRD7586
# Excerpt: Primary and secondary screening. The primary screen assayed a selection of unique chemical scaffolds derived from commercially available compounds and known bioactive molecular libraries (Table 7). Auto-fluorescent compounds were removed by a counter screen. Overall, the CAA was used to assay 122,409 small molecules with over 2,500 unique chemical scaffolds (FIG. 64F, Table 7). Of these compounds, 547 were selected as hits (Z score >3 in both replicates) for testing in orthogonal cell-based secondary assays. Hits were tested in duplicate in an eGFP disruption assay, wherein U2OS.eGFP.PEST cells^33 transfected with SpCas9 plasmid and eGFP-targeting gRNA plasmid were incubated with 20 μM of the compounds. In this assay, any compound that inhibited SpCas9 would rescue the loss of eGFP fluorescence. Here, toxic and auto-fluorescent compounds with a high GFP signal in cells were removed as false positives. […] Next, Applicants tested the 15 compounds in a luminescence-based gain-of-signal HiBiT knock-in assay, which involves SpCas9-mediated homology-directed tagging of GAPDH with a short peptide that luminesces upon complementation with a subunit derived from nanoluciferase.^34 Complementarily, the eGFP-disruption assay is fluorescence-based and involves error-prone DNA repair. As a counter-screen to remove false positives caused by cell death (viability <80%), the cell viability was measured after incubation.
# Approximately 400,000 HEK293T cells were nucleofected with 400 ng of SpCas9 plasmid, 40 ng of GAPDH-targeting gRNA plasmid, and 40 pmol of single-strand oligodeoxynucleotide (ssODN) using SF Cell Line 4D-Nucleofector X Kit (Lonza) following the pulse program of DS-150. For RNP-based genome editing, 10 pmol of Cas9 and 12 pmol of gRNA were mixed and incubated for 5 min. Then, 20 pmol of ssODN was added. Cells were nucleofected with the resulting mixture using the same pulse program. Cells were then transferred to a 96-well plate at the density of 35,000 cells per well, and incubated with indicated amount of compounds for 24 h. Cell viability was measured using PrestoBlue reagent (Thermo) with a SpectraMax M5 (Molecular Devices) at the excitation and emission wavelength of 544 nm and 590 nm, respectively. Next, luminescence measurement was performed using the Nano-Glo HiBiT Lytic Detection System (Promega) according to the manufacturer's protocol with an EnVision Multilabel Plate Reader (PerkinElmer) at the integration time of 0.5 s per well. The resulting luminescence signals were normalized based on the cell viability.^34
# [3] = target: T1, SpCas9; assay: Strand displacement assay (SDA) / cumulative activity assay (CAA), SpCas9 primary screen; format: biochemical; settings: Primary Screen (150 min); for Normalized Z score 1: replicate 1; for Normalized Z score 2: replicate 2
# In short: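 SpCas9:gRNA RNP in 20 mM Tris-HCl pH 7.5, 100 mM KCl, 5 mM MgCl2 was used at 10 nM (2× stock) with Alexa Fluor 647-labelled substrate and excess quencher strand (1 nM and 5 nM, 2× stocks). Fluorescence was read after 2.5 h at 37 °C, where cleavage lets the quencher strand anneal.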
# [4] = test system: restriction endonuclease Nde1; assay: Gel cleavage specificity assay, Nde1; format: biochemical; settings: 20 uM
# [5] = target: FnCpf1 (Francisella tularensis subsp. novicida, UniProt A0Q7Q2); format: biochemical; settings: 20 uM
# Sequence of FnCpf1 (A0Q7Q2 whole entry, looked up): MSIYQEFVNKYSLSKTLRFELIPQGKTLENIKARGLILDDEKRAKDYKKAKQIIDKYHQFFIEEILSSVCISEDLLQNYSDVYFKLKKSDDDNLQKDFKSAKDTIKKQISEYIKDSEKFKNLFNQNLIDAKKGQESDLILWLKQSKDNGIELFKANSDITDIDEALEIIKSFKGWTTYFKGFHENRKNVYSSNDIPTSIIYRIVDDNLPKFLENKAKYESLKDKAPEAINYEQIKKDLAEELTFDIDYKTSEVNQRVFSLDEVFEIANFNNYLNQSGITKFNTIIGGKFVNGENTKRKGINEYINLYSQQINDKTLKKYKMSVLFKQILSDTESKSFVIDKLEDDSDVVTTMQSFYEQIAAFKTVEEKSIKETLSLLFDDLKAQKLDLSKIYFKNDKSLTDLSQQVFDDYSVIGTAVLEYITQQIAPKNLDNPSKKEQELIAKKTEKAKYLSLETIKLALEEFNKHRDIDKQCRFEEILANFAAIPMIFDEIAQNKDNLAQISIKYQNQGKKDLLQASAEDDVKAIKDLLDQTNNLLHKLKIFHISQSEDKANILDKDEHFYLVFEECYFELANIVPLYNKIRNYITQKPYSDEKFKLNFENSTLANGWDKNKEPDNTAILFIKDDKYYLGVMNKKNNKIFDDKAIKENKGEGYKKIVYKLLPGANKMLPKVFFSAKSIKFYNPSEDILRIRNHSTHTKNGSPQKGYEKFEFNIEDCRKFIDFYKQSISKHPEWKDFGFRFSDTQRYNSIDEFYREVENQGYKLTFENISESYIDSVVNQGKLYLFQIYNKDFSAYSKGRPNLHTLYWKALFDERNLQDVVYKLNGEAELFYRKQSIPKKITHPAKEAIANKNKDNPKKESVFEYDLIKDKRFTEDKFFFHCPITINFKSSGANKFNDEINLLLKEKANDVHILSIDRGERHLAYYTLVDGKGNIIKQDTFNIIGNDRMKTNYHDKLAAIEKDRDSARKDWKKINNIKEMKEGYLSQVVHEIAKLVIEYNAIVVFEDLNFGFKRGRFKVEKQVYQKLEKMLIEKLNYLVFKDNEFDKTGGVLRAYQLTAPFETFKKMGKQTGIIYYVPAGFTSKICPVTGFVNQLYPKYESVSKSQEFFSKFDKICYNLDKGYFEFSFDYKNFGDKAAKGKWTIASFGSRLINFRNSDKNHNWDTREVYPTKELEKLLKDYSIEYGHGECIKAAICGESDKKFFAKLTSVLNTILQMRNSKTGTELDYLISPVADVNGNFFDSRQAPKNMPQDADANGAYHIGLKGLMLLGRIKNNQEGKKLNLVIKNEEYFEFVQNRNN
# [6] = Cas9 = lower control, Ctrl = upper control
# [7] = normalized, lower control about 0, upper control about 1
smiles,measurement,setting,value
O=C(CCSc1ccc(Cl)cc1)Nc1nc(-c2ccc(Br)cc2)cs1 [BRD0033],Activity in eGFP-disruption assay,[1],inactive
same,Activity in HiBiT knock-in assay,[2],inactive
COc1ccc(Cc2nn3c(-c4cccnc4)nnc3s2)cc1OC [Compound D727-0069],eGFP disruption-% inhibition,[1],24.03%
same,Normalized Z rep1,[1],−0.31
same,Z score Rep1,[1],−2.26
same,SpCas9 eGFP disruption Rep1,[1],59.543
same,Normalized Z rep2,[1],−0.17
same,Z socre Rep2,[1],−1.55
same,SpCas9 eGFP disruption Rep2,[1],58.398
same,Hibit assay-% inhibition,[2],8.56%
COc1ccc(Cc2nnc3sc(Cc4ccc(OC)c(OC)c4)nn23)cc1 [Compound D727-0165],eGFP disruption-% inhibition,[1],25.03%
same,Z score Rep1,[1],1.09
same,SpCas9 eGFP disruption Rep1,[1]; [6],70.62
same,Normalized Z rep1,[1]; [7],0.15
same,Z socre Rep2,[1],−0.43
same,SpCas9 eGFP disruption Rep2,[1]; [6],61.783
same,Normalized Z rep2,[1]; [7],−0.05
same,Hibit assay-% inhibition,[2],22.01%
c1ccc(-c2nnc3sc(-c4cc5ccccc5o4)nn23)nc1 [Compound D727-0535],eGFP disruption-% inhibition,[1],18.61%
same,Normalized Z rep1,[1],−0.14
same,Z score Rep1,[1],−0.99
same,SpCas9 eGFP disruption Rep1,[1],63.743
same,Normalized Z rep2,[1],−0.22
same,Z socre Rep2,[1],−2.07
same,SpCas9 eGFP disruption Rep2,[1],56.828
same,Hibit assay-% inhibition,[2],18.11%
O=C(CCSc1ccc(Cl)cc1)Nc1nc(-c2ccncc2)cs1 [Compound F2537-0908],Activity in eGFP-disruption assay,[1],significantly lower inhibitory activity
same,Activity in HiBiT knock-in assay,[2],significantly lower inhibitory activity
O=C(CCS(=O)(=O)c1ccccc1)Nc1nc(-c2ccncc2)cs1 [Compound G786-1264],eGFP disruption-% inhibition,[1],41.72%
same,"% GFP+, Rep 1",[1]; eGFP assay,82.72%
same,Z score Rep1,[1]; eGFP assay,3.83
same,"% GFP+, Rep 2",[1]; eGFP assay,83.95%
same,Z score Rep1,[1],3.83
same,SpCas9 eGFP disruption Rep1,[1]; [6],82.717
same,Normalized Z rep1,[1]; [7],0.37
same,Z socre Rep2,[1],9.69
same,SpCas9 eGFP disruption Rep2,[1]; [6],83.951
same,Normalized Z rep2,[1]; [7],0.42
same,Hibit assay-% inhibition,[2],72.63%
same,Average Normalized Z score,[3],0.06
same,avg z score primary,[3],5.95
same,Normalized Z score 1,[3],0.06
same,Normalized Z score 2,[3],0.06
O=C(CCS(=O)(=O)c1ccc(Cl)cc1)Nc1nc(-c2ccccn2)cs1 [Compound G786-1324],eGFP disruption-% inhibition,[1],32.94%
same,"% GFP+, Rep 1",[1]; eGFP assay,81.43%
same,Z score Rep1,[1]; eGFP assay,3.12
same,"% GFP+, Rep 2",[1]; eGFP assay,79.94%
same,Z score Rep1,[1],3.12
same,SpCas9 eGFP disruption Rep1,[1]; [6],81.427
same,Normalized Z rep1,[1]; [7],0.30
same,Z socre Rep2,[1],4.86
same,SpCas9 eGFP disruption Rep2,[1]; [6],79.939
same,Normalized Z rep2,[1]; [7],0.21
same,Hibit assay-% inhibition,[2],94.5%
same,Average Normalized Z score,[3],0.05
same,avg z score primary,[3],4.44
same,Normalized Z score 1,[3],0.05
same,Normalized Z score 2,[3],0.04
O=C(CCS(=O)(=O)c1ccc(Cl)cc1)Nc1nc(-c2ccncc2)cs1 [Compound G786-1325],eGFP disruption-% inhibition,[1],56.65%
same,"% GFP+, Rep 1",[1]; eGFP assay,86.01%
same,Z score Rep1,[1]; eGFP assay,5.65
same,"% GFP+, Rep 2",[1]; eGFP assay,86.24%
same,Z score Rep1,[1],5.65
same,SpCas9 eGFP disruption Rep1,[1]; [6],86.012
same,Normalized Z rep1,[1]; [7],0.54
same,Z socre Rep2,[1],12.44
same,SpCas9 eGFP disruption Rep2,[1]; [6],86.243
same,Normalized Z rep2,[1]; [7],0.54
same,Hibit assay-% inhibition,[2],97.09%
same,Average Normalized Z score,[3],0.04
same,avg z score primary,[3],4.35
same,Normalized Z score 1,[3],0.05
same,Normalized Z score 2,[3],0.04
Cc1ccccc1C(=O)Nc1nc2ccc(S(N)(=O)=O)cc2s1 [Compound G786-1547],eGFP disruption-% inhibition,[1],42.41%
same,"% GFP+, Rep 1",[1]; eGFP assay,82.8%
same,Z score Rep1,[1]; eGFP assay,3.88
same,"% GFP+, Rep 2",[1]; eGFP assay,84.09%
same,Z score Rep1,[1],3.88
same,SpCas9 eGFP disruption Rep1,[1]; [6],82.802
same,Normalized Z rep1,[1]; [7],0.37
same,Z socre Rep2,[1],9.85
same,SpCas9 eGFP disruption Rep2,[1]; [6],84.086
same,Normalized Z rep2,[1]; [7],0.43
same,Hibit assay-% inhibition,[2],4.3%
same,Average Normalized Z score,[3],0.04
same,avg z score primary,[3],3.81
same,Normalized Z score 1,[3],0.04
same,Normalized Z score 2,[3],0.04
CCc1cccc(-n2nnnc2N2CCN(C(=O)Nc3cccc(C)c3)CC2)c1 [Compound L378-0350],Activity against Nde1 in gel cleavage assay,[4],not Nde1
same,Activity against FnCpf1 in gel cleavage assay,[5],active in Fncpf1
CCc1cccc(-n2nnnc2N2CCN(C(=O)Nc3ccc(C)cc3C)CC2)c1 [Compound L378-0355],Activity against Nde1 in gel cleavage assay,[4],not Nde1
same,Activity against FnCpf1 in gel cleavage assay,[5],active in Fncpf1
CCc1cccc(-n2nnnc2N2CCN(C(=O)Nc3ccc(Br)c(C)c3)CC2)c1 [Compound L378-0372],Activity against Nde1 in gel cleavage assay,[4],not Nde1
same,Activity against FnCpf1 in gel cleavage assay,[5],active in Fncpf1
CCN1C(=O)c2cccc3cccc1c23 [Compound T0503-6911],eGFP disruption-% inhibition,[1],26.33%
same,"% GFP+, Rep 1",[1]; eGFP assay,67.52%
same,Z score Rep1,[1]; eGFP assay,3.76
same,"% GFP+, Rep 2",[1]; eGFP assay,66.59%
same,Z score Rep1,[1],3.76
same,SpCas9 eGFP disruption Rep1,[1]; [6],67.522
same,Normalized Z rep1,[1]; [7],0.26
same,Z socre Rep2,[1],6.09
same,SpCas9 eGFP disruption Rep2,[1]; [6],66.588
same,Normalized Z rep2,[1]; [7],0.29
same,Hibit assay-% inhibition,[2],18.06%
same,avg z score primary,[3],6.86
same,Average Normalized Z score,[3]; average of replicates,0.08
same,Normalized Z score 1,[3],0.06
same,Normalized Z score 2,[3],0.10
NC1=C(c2nc3ccccc3s2)C(=O)CN1N=Cc1ccc(-c2ccc(S(=O)(=O)Nc3ncccn3)cc2)o1 [Compound T5371551],eGFP disruption-% inhibition,[1],22.88%
same,"% GFP+, Rep 1",[1]; eGFP assay,64.28%
same,Z score Rep1,[1]; eGFP assay,2.50
same,"% GFP+, Rep 2",[1]; eGFP assay,76.75%
same,Z score Rep1,[1],2.50
same,SpCas9 eGFP disruption Rep1,[1]; [6],64.278
same,Normalized Z rep1,[1]; [7],0.17
same,Z socre Rep2,[1],11.57
same,SpCas9 eGFP disruption Rep2,[1]; [6],76.754
same,Normalized Z rep2,[1]; [7],0.56
same,Hibit assay-% inhibition,[2],−12.66%
same,avg z score primary,[3],9.04
same,Average Normalized Z score,[3]; average of replicates,0.60
same,Normalized Z score 1,[3],0.61
same,Normalized Z score 2,[3],0.58
Cc1nc2ccccc2c(C)c1CC(=O)N1CCN(c2ccc(O)cc2)CC1 [Compound T5461482],eGFP disruption-% inhibition,[1],24.48%
same,"% GFP+, Rep 1",[1]; eGFP assay,66.84%
same,Z score Rep1,[1]; eGFP assay,3.50
same,"% GFP+, Rep 2",[1]; eGFP assay,67.11%
same,Z score Rep1,[1],3.50
same,SpCas9 eGFP disruption Rep1,[1]; [6],66.842
same,Normalized Z rep1,[1]; [7],0.24
same,Z socre Rep2,[1],6.37
same,SpCas9 eGFP disruption Rep2,[1]; [6],67.113
same,Normalized Z rep2,[1]; [7],0.31
same,Hibit assay-% inhibition,[2],36.6%
same,avg z score primary,[3],3.23
same,Average Normalized Z score,[3]; average of replicates,0.10
same,Normalized Z score 1,[3],0.09
same,Normalized Z score 2,[3],0.10
O=C(CSc1nccn1-c1cccc(F)c1)N1CCN(c2ccc(O)cc2)CC1 [Compound T5535170],eGFP disruption-% inhibition,[1],27.53%
same,"% GFP+, Rep 1",[1]; eGFP assay,67.96%
same,Z score Rep1,[1]; eGFP assay,3.93
same,"% GFP+, Rep 2",[1]; eGFP assay,65.34%
same,Z score Rep1,[1],3.93
same,SpCas9 eGFP disruption Rep1,[1]; [6],67.964
same,Normalized Z rep1,[1]; [7],0.28
same,Z socre Rep2,[1],5.41
same,SpCas9 eGFP disruption Rep2,[1]; [6],65.339
same,Normalized Z rep2,[1]; [7],0.26
same,Hibit assay-% inhibition,[2],68.25%
same,avg z score primary,[3],4.37
same,Average Normalized Z score,[3]; average of replicates,0.31
same,Normalized Z score 1,[3],0.28
same,Normalized Z score 2,[3],0.33
